Measurements: article PMC6150375, “Synthesis, Biological Evaluation and Molecular Docking Study of 2-Substituted-4,6-Diarylpyrimidines as α-Glucosidase Inhibitors” (Molecules : A Journal of Synthetic Chemistry and Natural …, 2017)

Row | melting point [°C] | SMILES
1 | 135 to 138 | Cc1ccc(-c2cc(-c3cccc(Br)c3)nc(SCc3ccc(Br)cc3)n2)cc1 [Compound 6r, 2-((4-Bromobenzyl)thio)-4-(3-bromophenyl)-6-(p-tolyl)pyrimidine]
2 | 129 to 130 | Cc1ccc(-c2cc(-c3ccc(Br)cc3)nc(SCc3ccccc3)n2)cc1 [Compound 6o, 2-(Benzylthio)-4-(4-bromophenyl)-6-(p-tolyl)pyrimidine]
3 | 94 to 96 | Fc1cccc(CSc2nc(-c3ccc(Br)cc3)cc(-c3cccc(Br)c3)n2)c1 [Compound 6t, 4-(3-Bromophenyl)-6-(4-bromophenyl)-2-((3-fluorobenzyl)thio)pyrimidine]
4 | 129 to 132 | Clc1ccccc1CSc1nc(-c2ccc(Br)cc2)cc(-c2cccc(Br)c2)n1 [Compound 6s, 4-(3-Bromophenyl)-6-(4-bromophenyl)-2-((2-chlorobenzyl)thio)pyrimidine]

Further lines, the compound ahead of its results:

Row | SMILES | melting point [°C]
5 | Clc1ccc(CSc2nc(-c3ccc(Br)cc3)cc(-c3ccc(Br)cc3)n2)cc1 [Compound 6b, 4,6-Bis(4-bromophenyl)-2-((4-chlorobenzyl)thio)pyrimidine] | 176 to 178
6 | Cc1ccc(-c2cc(-c3cccc(Br)c3)nc(SCc3ccccc3F)n2)cc1 [Compound 6i, 4-(3-Bromophenyl)-2-((2-fluorobenzyl)thio)-6-(p-tolyl)pyrimidine] | 100 to 104
7 | Cc1ccc(-c2cc(-c3ccc(Br)cc3)nc(SCc3ccc(F)cc3)n2)cc1 [Compound 6l, 4-(4-Bromophenyl)-2-((4-fluorobenzyl)thio)-6-(p-tolyl)pyrimidine] | 115 to 124
8 | Cc1ccc(-c2cc(-c3ccc(Br)cc3)nc(SCc3ccccc3Br)n2)cc1 [Compound 6k, 2-((2-Bromobenzyl)thio)-4-(4-bromophenyl)-6-(p-tolyl)pyrimidine] | 123 to 126
9 | Cc1ccc(-c2cc(-c3cccc(Br)c3)nc(SCc3ccccc3Cl)n2)cc1 [Compound 6f, 4-(3-Bromophenyl)-2-((2-chlorobenzyl)thio)-6-(p-tolyl)pyrimidine] | 107 to 110
10 | Cc1ccc(-c2cc(-c3ccc(Br)cc3)nc(SCc3cccc(F)c3)n2)cc1 [Compound 6n, 4-(4-Bromophenyl)-2-((3-fluorobenzyl)thio)-6-(p-tolyl)pyrimidine] | 106 to 109
11 | Fc1ccccc1CSc1nc(-c2ccc(Br)cc2)cc(-c2ccc(Br)cc2)n1 [Compound 6d, 4,6-Bis(4-bromophenyl)-2-((2-fluorobenzyl)thio)pyrimidine] | 149 to 150
12 | Cc1ccc(-c2cc(-c3ccc(Br)cc3)nc(SCc3ccccc3F)n2)cc1 [Compound 6m, 4-(4-Bromophenyl)-2-((2-fluorobenzyl)thio)-6-(p-tolyl)pyrimidine] | 124 to 127
13 | Clc1ccccc1CSc1nc(-c2ccc(Br)cc2)cc(-c2ccc(Br)cc2)n1 [Compound 6a, 4,6-Bis(4-bromophenyl)-2-((2-chlorobenzyl)thio)pyrimidine] | 147 to 148
